In patent publication US20070014739A1, “Compositions and methods for controlling biofilms and bacterial infections” (priority 2005, published 2007):

Experiments:
[1] = test system: P. aeruginosa; assay: Biofilm inhibition, comparison of scaffold modifications; type: cell-based; conditions: effect of modifying corosolic acid at C-19, or at C-3 and C-20
[2] = test system: E. coli laboratory strain JM109; assay: Inhibition of biofilm formation, crystal violet, 96 well plates; type: cell-based; conditions: Escherichia coli, JM 109, compared to the controls, read-out: inhibited biofilm formation of the JM109 strain
Procedure: Biofilm inhibition experiments were conducted using an assay adapted from the reported protocol described in Pratt and Kolter, 1998, Molecular Microbiology, 30: 285-293; Li et al., 2001, J. Bacteriol., 183: 897-908. E. coli clinical strain UT189 was grown in LB in 96 well plates at room temperature for one or two days without shaking. E. coli laboratory strain JM109 was grown in LB plus 0.2% glucose in 96 well plates at room temperature for one day without shaking. To quantify the biofilm mass, the suspension culture was poured out and the biofilm was washed three times with water. The biofilm was stained with 0.1% crystal violet for 20 minutes. The plates were then washed three times with water. OD reading at 540 nm was measured to quantify the biofilm mass at the bottom of the wells. Then 95% ethanol was added to dissolve the dye at the bottom and on the wall and the OD reading at 540 nm was measured to quantify the total biofilm mass. To study the overall effect of the compounds (3.6 mg/mL in 100% ethanol as stock solution), it was added with the inoculation and a time course of biofilm mass was measured. Appropriate amounts of 100% ethanol were added to each sample to eliminate the effect of solvent. Each condition had 3-4 replicates on each plate and was performed over multiple days.

[3] = test system: P. aeruginosa strain PAO1; assay: Rotating disk reactor (RDR) biofilm test with and without tobramycin, culturable bacteria; type: cell-based, Pseudomonas aeruginosa; conditions: test compound 100 μg/ml 24 h, average of three days
Procedure: Biofilm formation of P. aeruginosa was evaluated using a standardized biofilm method with a rotating disk reactor (RDR). This method provides a model resembling the formation of biofilms in cystic fibrosis patients. The rotating disk reactor consists of a one-liter glass beaker fitted with a drain spout. The bottom of the vessel contains a magnetically driven rotor with six 1.27 cm diameter coupons constructed from polystyrene. The rotor consists of a star-head magnetic stir bar upon which a disk was affixed to hold the coupons. The vessel with the stir bar was placed on a stir plate and rotated to provide fluid shear. A nutrient solution (AB Trace Medium with 0.3 mM glucose, see Table 3 below for composition) was added through a stopper in the top of the reactor at a flow rate of 5 ml/min. The reactor volume was approximately 180 ml and varied slightly between reactors depending on the placement of the drain spout and the rotational speed of the rotor. At a volume of 180 ml, the residence time of the reactors was 36 minutes. The reactors were operated at room temperature (c.a. 26° C.).
For each test, two RDRs were operated in parallel with one receiving test compound and the other serving as an untreated control. The RDRs were sterilized by autoclave, then filled with sterile medium and inoculated with P. aeruginosa strain PAO1. The reactors were then incubated at room temperature in batch mode (no medium flow) for a period of 24 hours, after which the flow was initiated for a further 24 hour incubation. Test compounds were dissolved in 10 ml ethanol to achieve a concentration of 1.8 mg/ml. After the 48 hours of biofilm development described above, the 10 ml of ethanol containing the test compounds were added to the reactor to achieve a final concentration of approximately 50, 100, or 200 μg/ml. Control reactors received 10 ml of ethanol. The reactors were then incubated for an additional 24 hours in batch (no flow) mode. After this incubation period, the six coupons were removed from each reactor and placed in 12-well polystyrene tissue culture plates with wells containing either 2 ml of a 100 μg/ml tobramycin solution or 2 ml of phosphate-buffered saline (PBS). These plates were incubated at room temperature for two hours. The coupons were then rinsed by three transfers to plates containing 2 ml of fresh PBS. For each two RDR reactors run in parallel, four sets of three coupons were obtained: one set with no test compound treatment and no tobramycin treatment, one set with no test compound treatment and tobramycin treatment, one set treated with a test compound treatment and no tobramycin treatment, and one set treated with a test compound treatment and tobramycin. After rinsing, one coupon of each set of three was stained with a LIVE/DEAD® BacLight™ Bacterial Viability Kit (Molecular Probes, Eugene Oreg.) and imaged using epifluorescent microscopy. The remaining two coupons were placed in 10 ml of PBS and sonicated for five minutes to remove and disperse biofilm cells. The resulting bacterial suspensions were then serially diluted in PBS and plated on tryptic soy agar plates for enumeration of culturable bacteria. The plates were incubated for 24 hours at 37° C. before colony forming units (CFU) were determined.
The results are averages from experiments performed on three separate days for each test compound. The values reported are as loglo CFU.

[4] = Bladder concentrations in rats (pharmacokinetic study); conditions: rat, in vivo; rats, 50 mg/kg oral single bolus in 50% Labrasol, at 24 hours; read-out: Concentrations in the bladder
Procedure: Pharmacokinetic studies of asiatic acid and madecassic acid in rats were performed separately. Asiatic acid and madecassic acid were evaluated at 50 mg/kg (oral). Two animals were assigned to the each group. Prior to dosing, a baseline blood sample was taken from each animal. At time zero for asiatic acid and madecassic acid, a single bolus dose in 50% Labrasol (Gattefosse) was given to each animal. Bladders were analyzed at 24 hours. Concentrations of both asiatic acid and madecassic acid in the bladder were approximately 30 μg/g at 24 hours.

[5] = test system: E. coli UT189[pCOMGFP]; assay: Biofilm pods (IBCs) in bladders of infected mice, intravesical compound, confocal microscopy; type: in vivo, Escherichia coli; conditions: experiment 1: C3H/HeN mice, 40 μg/ml intravesical with 30 min pre-incubation, 10^8 CFU, five hours; vs controls
Procedure: The procedures in this example has been previously reported by Justice, S. et al. Differentiation and development pathways of uropathogenic Escherichia coli in urinary tract pathogenesis. PNAS, 2004, 101(5), p. 1333-1338. Briefly, E. coli UT189[pCOMGFP] was prepared after retrieval from frozen stocks by inoculating appropriately in LB medium statically for approximately 20 hours. Cells were harvested and suspended in 1 ml of PBS. Cells were diluted appropriately to achieve approximately a 10^8 CFU or 10^7 CFU input into C3H/HeN mice (2 mice per group).
Mice were deprived of water for approximately two hours. In experiment 1, all mice were anesthetized with 0.15 cc ketamine cocktail. In experiment 2, all mice were anesthetized with isofluorane. In experiment 1, urine was dispelled from the bladders and approximately 40 μg/ml of test compound or an appropriate amount of ethanol as control was introduced into the bladders via catheterization of the urethra using a tubing coated tuberculin syringe. 30 minutes was allowed to elapse. In experiment 2, bladders were not pre-incubated with test compounds. Bladders were then expelled and an inoculum of 10^8 CFU (Experiment 1) or 10^7 CFU (Experiment 2) of E. coli containing 40 μg/ml of test compound or equivalent amount of ethanol as controls were introduced into the bladders as indicated above.
In experiment 1 five hours elapsed and in experiment 2 six hours elapsed, and then mice were anesthetized and sacrificed appropriately. The bladders were removed, bisected, stretched, and fixed in 3% paraformaldehyde for 1 hour at room temperature. Bladders were then permeabilized in 0.01% Triton/PBS for 10 minutes and counter stained with TOPRO3 (Molecular Probes) for 10 minutes for visualization by confocal microscopy. Bladders were mounted on Prolong antifade (Molecular Probes).

[6] = test system: S. aureus; conditions: U.S. Pat. No. 4,606,911; cited from earlier work
[7] = test system: P. aeruginosa; conditions: U.S. Pat. No. 4,606,911; cited from earlier work
[8] = test system: S. mutans; conditions: U.S. Pat. No. 4,606,911; cited from earlier work
[9] = test system: E. coli clinical strain UT189 against bladder epithelial cells; assay: Binding to and invasion of bladder epithelial cells by E. coli; type: cell-based; conditions: 40 μg/ml, 60 minutes; separate experiments (n=4 to 7)
Procedure: The effect of test compounds on bacterial invasion of E. coli clinical strain UT189 was studied as described in Elsinghorst, et al. 1994, Methods Enzymol, 236:405-420; and Martinez et al., 2000, EMBO J., 19:2803-2812. Epithelial bladder cells were grown in plates. Asiatic acid, corosolic acid, or ursolic acid were added at concentrations of 10 μg/ml, 20 μg/ml, or 40 μg/ml to bacteria and epithelial cells for approximately 5, 15, 30, or 60 minutes with approximately 10^7 CFU of E. coli. Binding was assessed at time zero and invasion was assessed at approximately 5, 15, 30, or 60 minutes from completing the mixture of compound, bacteria, and epithelial cells. As a control ethanol was added to cells to a final concentration of 0.1%. The effect of bacterial viability and bacterial adherence during the infection period was evaluated according to the methods described in Martinez et al., 2000, EMBO J., 19:2803-2812.

[10] = test system: E. coli; conditions: U.S. Pat. No. 4,606,911; cited from earlier work
[11] = test system: S. salivaris; conditions: U.S. Pat. No. 4,606,911; cited from earlier work

Compound | biofilm inhibition against P. aeruginosa relative to corosolic acid [1] | growth inhibition of S. aureus [6] | growth inhibition of P. aeruginosa [7] | growth inhibition of S. mutans [8] | growth inhibition of E. coli [10] | growth inhibition of S. salivaris [11] | further results
C[C@@H]1[C@H]2C3=CCC4[C@@]5(C)CC[C@H](OC(=O)/C=C\c6ccc(O)cc6)C(C)(C)C5CC[C@@]4(C)[C@]3(C)CC[C@@]2(C(=O)O)CC[C@]1(C)O (stereo partly drawn) [3-[4-Hydroxycinnamoyl (cis-)], 20-hydroxy-ursolic acid] | increases biofilm inhibition |  |  |  |  |  | 
C[C@@H]1CC[C@]2(C(=O)O)CC[C@]3(C)C(=CC[C@@H]4[C@@]5(C)C[C@@H](O)[C@H](O)C(C)(C)[C@@H]5CC[C@]43C)[C@@H]2[C@]1(C)O [Tormentic acid] | slightly reduces the biofilm inhibition |  |  |  |  |  | 
C[C@H]1[C@H](C)CC[C@]2(C(=O)O)CC[C@]3(C)C(=CC[C@@H]4[C@@]5(C)C[C@@H](O)[C@H](O)[C@@](C)(CO)[C@@H]5[C@H](O)C[C@]43C)[C@H]12 [Madecassic acid] |  |  |  |  |  |  | inhibition at 5 µg/mL ([2]; 5 ug/ml): ~60%; inhibition at 10 µg/mL ([2]; 10 ug/ml): ~75%; CFU, Test Compound ([3]; no tobramycin): 7.5 loglo CFU; CFU, Tobramycin and Test Compound ([3]; then tobramycin 100 μg/ml 2 h): 5.5 loglo CFU; concentration at 24 h [4]: ~30000 ng/g
C[C@@H]1CC[C@]2(C(=O)O)CC[C@]3(C)C(=CCC4[C@@]5(C)CC[C@H](O)C(C)(C)C5CC[C@]43C)C2[C@H]1C (stereo partly shown) [Ursolic acid] |  | failed to inhibit | failed to inhibit | completely inhibited | failed to inhibit | completely inhibited | reduction in biofilm pods or IBCs in the bladders of mice [5]: 70%; reduced invasion of E. coli into bladder epithelial cells [9]: 76%
CC1(C)CC[C@]2(C(=O)O)CC[C@]3(C)C(=CC[C@@H]4[C@@]5(C)CC[C@H](O)C(C)(C)[C@@H]5CC[C@]43C)[C@@H]2C1 [Oleanolic acid] |  | failed to inhibit | failed to inhibit | incomplete inhibition | failed to inhibit | incomplete inhibition | 
